Columns and labels:
[1] = tested on: WEHI-164 fibrosarcoma; assay: Antitumor activity in WEHI-164 fibrosarcoma-bearing mice; format: in vivo
Description: Female BALB/c mice (Charles River Laboratories, Calco, Italy), weighing 16–18 g, were subcutaneously injected into the left flank of 10^6 WEHI-164 cells (ATCC, cat. CRL-1751, Lot. 63,682,839). Dose-finding experiments were performed with groups of six mice treated with G4-TNF (4, 20, or 100 pg/dose in 100 μL of 0.9% sodium chloride containing 100 µg/ml HSA, intraperitoneally injected on day 5) or vehicle. Tumor growth was monitored daily by measuring tumor volume with calipers, as previously described. The animals were sacrificed before the tumor diameter reached 1.0–1.5 cm. To test whether the antitumor activity of G4-TNF was mediated by CD13, tumor-bearing mice (6 animals/group) were treated with a single injection of G4-TNF (100 pg/dose, i.p.) in combination with peptide CNGRC (100 µg/dose) or anti-CD13 mAb R3-63 (25 µg/dose, given 1.5 h i.p. before administration of G4-TNF) 5 days after tumor implantation.
Fig. 3 Effect of G4-TNF on tumor growth and body weight of mice bearing WEHI-164 fibrosarcomas. A Mice bearing subcutaneous WEHI-164 tumors (5–6 mice/groups) were treated 5 days after tumor implantation with a single intraperitoneal injection of G4-TNF (0, 4, 20, or 100 pg). Tumor volume and body weight after treatment were monitored daily. B Effect of mAb R3-63 (anti-murine CD13 antibody, 25 µg) and CNGRC peptide (100 µg) on the antitumor activity of G4-TNF (100 pg) (5–6 mice/group). The arrows indicate the time of treatment. *P < 0.05; **P < 0.01, by Mann–Whitney analysis of the area under the curve for each tumor, with the GraphPad Prism software (mean ± SEM)
A) Mice bearing subcutaneous WEHI-164 tumors (6 mice/groups), were treated 5-6 days after tumor implantation with a single intraperitoneal injection of murine NGR-TNF (0, 25, 50, or 100 pg). Tumor volume and body weight after treatment were monitored daily.
B) Effect of murine TNF (50 pg) on tumor growth and body weight. The arrows indicate the time of treatment (mean ± SEM).

[2] = tested on: membrane CD13 expressed by HUVEC; assay: Competitive binding of anti-CD13 mAb WM15 to HUVEC by flow cytometry; parameters: species or system human
Description: HUVEC were seeded in 96-well U-bottom polystyrene microtiter plates at a density of 2 × 10^5 cells in 100 µL DPBS supplemented with 5% normal human serum (NHS) and mixed with a mixture of peptide G4 ranging from 0 to 10 µM and mAb WM15 (0 or 0.13 nM). The chromogranin A429-439 peptide fragment (CgA429-439) was used instead of G4 as a control. After 1 h of incubation at 4 °C, the cells were washed and resuspended in 100 µL of DPBS containing 5% NHS and 1 µg/mL of FITC-labeled goat anti-mouse IgG secondary antibody. Cells were subsequently incubated for 1 h at 4 °C, washed, and analyzed by flow cytometry. All flow cytometry data were collected on a CytoFLEX S flow cytometer (Beckman Coulter) and analyzed using FlowJo software 10 (BD BioScience).
Fig. 2 G4 recognizes soluble forms of CD13, with higher affinity and selectivity than bestatin, and the membrane forms expressed on the surface of HUVEC cells. A Inhibitory effects of G4 and bestatin on the enzymatic activities of different aminopeptidases (rCD13, APA, and APB). Various amounts of G4 or bestatin were incubated with rCD13 (0.2 µg/mL in 60 mM Tris–HCl pH 7.4), APA (0.2 µg/mL in 60 mM Tris–HCl pH 7.4, 50 mM calcium chloride, 200 mM sodium chloride) or APB (0.2 µg/mL in 60 mM Tris–HCl pH 7.4, 100 mM potassium chloride) and the corresponding substrates at 0.1 mM (L-alanine-7-amido-4-methylcoumarin for rCD13, L-glutamic acid γ-(7-amido-4-methylcoumarin) for APA, and L-arginine-7-amido-4-methylcoumarin for APB). The mixtures were incubated for 30 min at 37 °C, and the cleavage of each substrate was monitored by measuring the fluorescence of methylcoumarin (λex 341 nm; λem 441 nm) using an Infinite 200 PRO plate reader (Tecan). Three independent experiments were performed for each enzyme. […] Substrate cleavage by sCD13 dissociated from mAb WM15 was then monitored by measuring the absorbance at 405 nm in each well using a plate reader (Bio-Rad). […] After incubation for 60 min at 4 °C, the cells were washed and analyzed by flow cytometry. Data are expressed as the percentage of counts vs. fluorescence intensity units […]

VGCARRYCS-TNF [G4-TNF, recombinant murine TNF fused to the C-terminus of G4]
Body weight and clinical signs of toxicity ([1]; mice after treatment with 4, 20 or 100 pg i.p.): No loss of body weight and no other clinical signs of toxicity | Antitumor effect (tumor growth) ([1]; single intraperitoneal injection of 100 pg, 5 days after tumor implantation): significant antitumor effects | Competition of mAb WM15 binding to HUVEC (in words) ([2]; Fig. 4C and 4D): competed the binding of mAb WM15 to endothelial cells | Competition of mAb WM15 binding to HUVEC (in words) ([2]; competitor 5 µM, mAb WM15 0.13 nM, 60 min, 4 °C, Supplementary Fig. S4D): competed with the binding of mAb WM15 (anti-CD13) to HUVEC to an extent similar to that observed with G4
